Assay results published in ChEMBL document CHEMBL5223154, “9-Demethoxy-medicarpin: A potential bone health supplement for the management of protein deficiency-induced bone loss in growing rats” (2023).
Active and inactive are the calls of the source. No cut-off for these calls is given here.

Tests used:
Rattus norvegicus [1] = assay: Effect on protein deficiency diet induced bone loss in Sprague-Dawley rat assessed as change in femur length at 1 mg, po supplemented with protein deficient diet for one month followed by compound treatment and measured after 4 weeks; assay type: functional
Rattus norvegicus [2] = assay: Effect on protein deficiency diet induced bone loss in Sprague-Dawley rat assessed as increase in bone mineral density at proximal head of tibia at 10 mg, po supplemented with protein deficient diet for one month followed by compound treatment and […]; assay type: functional, organism-based
Rattus norvegicus [3] = assay: Effect on protein deficiency diet induced bone loss in Sprague-Dawley rat assessed as change in serum albumin level at 10 mg, po supplemented with protein deficient diet for one month followed by compound treatment and measured after 4 weeks; assay type: functional
Rattus norvegicus [4] = assay: Effect on protein deficiency diet induced bone loss in Sprague-Dawley rat assessed as change in serum TGA level at 1 mg, po supplemented with protein deficient diet for one month followed by compound treatment and measured after 4 weeks; assay type: functional
Rattus norvegicus [5] = assay: Effect on protein deficiency diet induced bone loss in Sprague-Dawley rat assessed as change in serum alkaline phosphatase level at 1 mg, po supplemented with protein deficient diet for one month followed by compound treatment and measured after 4 weeks; assay type: functional
Rattus norvegicus [6] = assay: Effect on protein deficiency diet induced bone loss in Sprague-Dawley rat assessed as change in serum urea level at 10 mg, po supplemented with protein deficient diet for one month followed by compound treatment and measured after 4 weeks; assay type: functional
Rattus norvegicus [7] = assay: Effect on protein deficiency diet induced bone loss in Sprague-Dawley rat assessed as increase in L4 vertebral bone mineral density at 1 to 10 mg, po supplemented with protein deficient diet for one month followed by compound treatment and measured after 4 weeks; assay type: functional, organism-based; settings: dose 1-10 mg
Rattus norvegicus [8] = assay: Effect on protein deficiency diet induced bone loss in Sprague-Dawley rat assessed as change in tibia length at 1 mg, po supplemented with protein deficient diet for one month followed by compound treatment and measured after 4 weeks; assay type: functional
Rattus norvegicus [9] = assay: Effect on protein deficiency diet induced bone loss in Sprague-Dawley rat assessed as change in body weight at 10 mg, po supplemented with protein deficient diet for one month followed by compound treatment and measured twice a week for 4 weeks; assay type: functional
Rattus norvegicus [10] = assay: Effect on protein deficiency diet induced bone loss in Sprague-Dawley rat assessed as change in phosphate ion level in serum at 1 mg, po supplemented with protein deficient diet for one month followed by compound treatment and measured after 4 weeks; assay type: functional
Mesenchymal stem cells = assay: Induction of osteoblast differentiation in bone marrow mesenchymal stem cells isolated from Sprague-Dawley rat model of protein deficiency diet induced bone loss assessed as increase in mineralized nodule formation at 1 to 10 mg, po supplemented with protein deficient diet for one month followed by compound treatment and measured after 4 weeks by Alizarin Red-S staining based analysis; assay type: functional, organism-based; settings: dose 1-10 mg
Rattus norvegicus [11] = assay: Effect on protein deficiency diet induced bone loss in Sprague-Dawley rat assessed as increase in global tibial bone mineral density at 10 mg, po supplemented with protein deficient diet for one month followed by compound treatment and measured after 4 weeks; assay type: functional, organism-based
Rattus norvegicus [12] = assay: Effect on protein deficiency diet induced bone loss in Sprague-Dawley rat assessed as increase in L3 vertebral bone mineral density at 1 to 10 mg, po supplemented with protein deficient diet for one month followed by compound treatment and measured after 4 weeks; assay type: functional, organism-based; settings: dose 1-10 mg
Rattus norvegicus [13] = assay: Effect on protein deficiency diet induced bone loss in Sprague-Dawley rat assessed as increase in bone mineral density at TFSP region of tibia at 1 mg, po supplemented with protein deficient diet for one month followed by compound treatment and measured after 4 weeks; assay type: functional, organism-based
Rattus norvegicus [14] = assay: Effect on protein deficiency diet induced bone loss in Sprague-Dawley rat assessed as change in serum TGA level at 10 mg, po supplemented with protein deficient diet for one month followed by compound treatment and measured after 4 weeks; assay type: functional
Rattus norvegicus [15] = assay: Effect on protein deficiency diet induced bone loss in Sprague-Dawley rat assessed as change in serum total protein level at 1 mg, po supplemented with protein deficient diet for one month followed by compound treatment and measured after 4 weeks; assay type: functional
Rattus norvegicus [16] = assay: Effect on protein deficiency diet induced bone loss in Sprague-Dawley rat assessed as increase in bone mineral density at midshaft of femur at 10 mg, po supplemented with protein deficient diet for one month followed by compound treatment and measured after 4 weeks; assay type: functional, organism-based
Rattus norvegicus [17] = assay: Effect on protein deficiency diet induced bone loss in Sprague-Dawley rat assessed as change in serum alkaline phosphatase level at 10 mg, po supplemented with protein deficient diet for one month followed by compound treatment and measured after 4 weeks; assay type: functional
Rattus norvegicus [18] = assay: Effect on protein deficiency diet induced bone loss in Sprague-Dawley rat assessed as increase in global tibial bone mineral density at 1 mg, po supplemented with protein deficient diet for one month followed by compound treatment and measured after 4 weeks; assay type: functional, organism-based
Rattus norvegicus [19] = assay: Effect on protein deficiency diet induced bone loss in Sprague-Dawley rat assessed as increase in bone mineral density at proximal head of tibia at 1 mg, po supplemented with protein deficient diet for one month followed by compound treatment and measured after 4 weeks; assay type: functional, organism-based
Rattus norvegicus [20] = assay: Effect on protein deficiency diet induced bone loss in Sprague-Dawley rat assessed as increase in L2 vertebral bone mineral density at 1 to 10 mg, po supplemented with protein deficient diet for one month followed by compound treatment and measured after 4 weeks; assay type: functional, organism-based; settings: dose 1-10 mg
Rattus norvegicus [21] = assay: Effect on protein deficiency diet induced bone loss in Sprague-Dawley rat assessed as change in serum urea level at 1 mg, po supplemented with protein deficient diet for one month followed by compound treatment and measured after 4 weeks; assay type: functional
Rattus norvegicus [22] = assay: Effect on protein deficiency diet induced bone loss in Sprague-Dawley rat assessed as change in serum creatinine level at 10 mg, po supplemented with protein deficient diet for one month followed by compound treatment and measured after 4 weeks; assay type: functional
Rattus norvegicus [23] = assay: Effect on protein deficiency diet induced bone loss in Sprague-Dawley rat assessed as change in body weight at 1 mg, po supplemented with protein deficient diet for one month followed by compound treatment and measured twice a week for 4 weeks; assay type: functional
Rattus norvegicus [24] = assay: Effect on protein deficiency diet induced bone loss in Sprague-Dawley rat assessed as increase in L1 vertebral bone mineral density at 1 to 10 mg, po supplemented with protein deficient diet for one month followed by compound treatment and measured after 4 weeks; assay type: functional, organism-based; settings: dose 1-10 mg
Rattus norvegicus [25] = assay: Effect on protein deficiency diet induced bone loss in Sprague-Dawley rat assessed as change in serum creatinine level at 1 mg, po supplemented with protein deficient diet for one month followed by compound treatment and measured after 4 weeks; assay type: functional
Rattus norvegicus [26] = assay: Effect on protein deficiency diet induced bone loss in Sprague-Dawley rat assessed as change in tibia length at 10 mg, po supplemented with protein deficient diet for one month followed by compound treatment and measured after 4 weeks; assay type: functional
Rattus norvegicus [27] = assay: Effect on protein deficiency diet induced bone loss in Sprague-Dawley rat assessed as increase in bone mineral density at TFSP region of tibia at 10 mg, po supplemented with protein deficient diet for one month followed by compound treatment and measured after 4 weeks; assay type: functional, organism-based
Rattus norvegicus [28] = assay: Effect on protein deficiency diet induced bone loss in Sprague-Dawley rat assessed as change in serum total protein level at 10 mg, po supplemented with protein deficient diet for one month followed by compound treatment and measured after 4 weeks; assay type: functional
Rattus norvegicus [29] = assay: Effect on protein deficiency diet induced bone loss in Sprague-Dawley rat assessed as increase in global femur bone mineral density at 10 mg, po supplemented with protein deficient diet for one month followed by compound treatment and measured after 4 weeks; assay type: functional, organism-based
Rattus norvegicus [30] = assay: Effect on protein deficiency diet induced bone loss in Sprague-Dawley rat assessed as change in phosphate ion level in serum at 10 mg, po supplemented with protein deficient diet for one month followed by compound treatment and measured after 4 weeks; assay type: functional
Rattus norvegicus [31] = assay: Effect on protein deficiency diet induced bone loss in Sprague-Dawley rat assessed as increase in global vertebral bone mineral density at 1 to 10 mg, po supplemented with protein deficient diet for one month followed by compound treatment and measured after 4 weeks; assay type: functional, organism-based; settings: dose 1-10 mg
Rattus norvegicus [32] = assay: Effect on protein deficiency diet induced bone loss in Sprague-Dawley rat assessed as increase in bone mineral density at neck of femur at 10 mg, po supplemented with protein deficient diet for one month followed by compound treatment and measured after 4 weeks; assay type: functional, organism-based
Rattus norvegicus [33] = assay: Effect on protein deficiency diet induced bone loss in Sprague-Dawley rat assessed as change in serum albumin level at 1 mg, po supplemented with protein deficient diet for one month followed by compound treatment and measured after 4 weeks; assay type: functional
Rattus norvegicus [34] = assay: Effect on protein deficiency diet induced bone loss in Sprague-Dawley rat assessed as change in femur length at 10 mg, po supplemented with protein deficient diet for one month followed by compound treatment and measured after 4 weeks; assay type: functional

Q: For `Oc1ccc2c(c1)OCC1c3ccccc3OC21` (stereo not given), which Activity (Rattus norvegicus [1]) is on record?
A: Its Activity is 2.25 cm.

Q: And the Activity (Rattus norvegicus [2])?
A: The Activity was “Active”.

Q: And the Activity (Rattus norvegicus [3])?
A: Its Activity is 1.45 g/dL.

Q: And the Activity (Rattus norvegicus [4])?
A: Its Activity is 17.8333 mg/dL.

Q: And the Activity (Rattus norvegicus [5])?
A: The Activity was 377.2 IU/L.

Q: What about the Activity (Rattus norvegicus [6]) of the same compound?
A: The Activity was 14.1333 mmol/L.

Q: And the Activity (Rattus norvegicus [7])?
A: The Activity was “Active”.

Q: And the Activity (Rattus norvegicus [8])?
A: The Activity was 2.647 cm.

Q: And the Activity (Rattus norvegicus [9])?
A: The Activity was 79.7 g.

Q: What about the Activity (Rattus norvegicus [10]) of the same compound?
A: The Activity was 4.346 mg/dL.

Q: And the Activity (Mesenchymal stem cells)?
A: Its Activity is “Active”.

Q: And the Activity (Rattus norvegicus [11])?
A: The Activity was “Active”.

Q: What about the Activity (Rattus norvegicus [12]) of the same compound?
A: Its Activity is “Active”.

Q: And the Activity (Rattus norvegicus [13])?
A: The Activity was “inactive”.

Q: And the Activity (Rattus norvegicus [14])?
A: Its Activity is 23.9333 mg/dL.

Q: What about the Activity (Rattus norvegicus [15]) of the same compound?
A: The Activity was 48.9 g/L.

Q: What about the Activity (Rattus norvegicus [16]) of the same compound?
A: Its Activity is “Active”.

Q: What about the Activity (Rattus norvegicus [17]) of the same compound?
A: Its Activity is 512.55 IU/L.

Q: What about the Activity (Rattus norvegicus [18]) of the same compound?
A: Its Activity is “inactive”.

Q: And the Activity (Rattus norvegicus [19])?
A: The Activity was “inactive”.

Q: What about the Activity (Rattus norvegicus [20]) of the same compound?
A: The Activity was “Active”.

Q: And the Activity (Rattus norvegicus [21])?
A: Its Activity is 11.3 mmol/L.

Q: And the Activity (Rattus norvegicus [22])?
A: Its Activity is 0.2567 mg/dL.

Q: And the Activity (Rattus norvegicus [23])?
A: The Activity was 74.03 g.

Q: And the Activity (Rattus norvegicus [24])?
A: The Activity was “Active”.

Q: And the Activity (Rattus norvegicus [25])?
A: Its Activity is 0.2633 mg/dL.

Q: What about the Activity (Rattus norvegicus [26]) of the same compound?
A: Its Activity is 2.8 cm.

Q: And the Activity (Rattus norvegicus [27])?
A: Its Activity is “Active”.

Q: And the Activity (Rattus norvegicus [28])?
A: Its Activity is 64.7 g/L.

Q: What about the Activity (Rattus norvegicus [29]) of the same compound?
A: Its Activity is “Active”.

Q: What about the Activity (Rattus norvegicus [30]) of the same compound?
A: The Activity was 7.576 mg/dL.

Q: And the Activity (Rattus norvegicus [31])?
A: The Activity was “Active”.

Q: And the Activity (Rattus norvegicus [32])?
A: Its Activity is “Active”.

Q: What about the Activity (Rattus norvegicus [33]) of the same compound?
A: Its Activity is 1.11 g/dL.

Q: What about the Activity (Rattus norvegicus [34]) of the same compound?
A: The Activity was 2.39 cm.
